Laboratory results taken from patent publication US20200397796A1, “METHODS OF TREATMENT OF CANCER COMPRISING CHK1 INHIBITORS” (SIERRA ONCOLOGY, INC., priority 2018, published 2020).

Experiments:
[1] = Phase 1 clinical trial, SRA737 in combination with gemcitabine dose escalation; format: in vivo, human; details: for AUC(0-t) / Cmax / Tmax / half-life: human, plasma, oral, mean
Protocol: A Phase 1 clinical trial was conducted in ‘all corners,’ i.e. no genetic selection was performed, to establish safety, tolerability and pharmacokinetics for SRA737 administered in combination with gemcitabine (“Dose Escalation Phase”). Cohorts consisting initially of a single subject received escalating doses of SRA737, starting in Cohort 1 with 40 mg/day administered orally on days 2, 3, 9, 10, 16, and 17 of each 28-day cycle. Cohorts also received various doses of gemcitabine, starting in Cohort 1 with 300 mg/m^2/day administered IV over 30 minutes on days 1, 8, and 15 of each 28-day cycle.
FIG. 3 presents a summary of dosing amounts for the cohorts tested. In the Dose Escalation Phase, a total of 55 subjects received SRA737 in 13 dose escalation cohorts at doses of 40 to 600 mg SRA737 combined with LDG doses of 50 to 300 mg/m^2.
At this dose, the Cmin (52 ng/mL) exceeded that determined in preclinical models to be effective.
Additional cohorts are monitored escalating the dose of SRA737 until the maximum tolerated dose (MTD) is identified and to optimize combination dosing with gemcitabine. All enrolled subjects who receive at least 1 dose of SRA737 and provide at least 1 evaluable PK concentration or have evaluable data for each specific PDn assessment are evaluable for PK and PDn, respectively. Serious adverse events (SAEs) are collected starting on the date of informed consent. Radiological assessment are performed within 4 weeks from the first dose of SRA737 (or gemcitabine if the SRA737 dose for PK is omitted) and repeated every 6 weeks in Stage 1. In Stage 2, assessments are performed every 8 weeks and in long-term follow-up every 16 weeks. Assessments are performed more frequently, when clinically indicated. Cardiac assessments (echocardiogram [ECHO] and electrocardiogram [ECG]) are be conducted. Optional triplet tumor biopsies in some cases are collected within 28 days prior to receiving the first SRA737 dose. Within 7 days of the first dose of SRA737 (or gemcitabine if the SRA737 dose for PK is omitted), the following assessments are completed: complete physical examination, clinical disease assessment, SAE and concomitant medication, WHO performance status and local laboratory assessment of blood (for hematology, biochemistry, and pregnancy testing). At the single-dose PK run-in on Day −7 to Day −4 visit, concomitant medication, vital signs (including temperature, blood pressure, and pulse), height, weight, body surface area (BSA), and WHO performance status are collected. Blood samples are obtained predose for hematology, biochemistry, pregnancy testing, troponin I or T, as well as for tumor markers and tumor profiling. Adverse events (AEs) are collected starting at the administration of SRA737. Archival tissue is submitted for tumor profiling. PK samples are collected at up to 10 time points over a 48-hour time period on Day −7 to −4 (first dose of SRA737 for PK). The sponsor in some cases reduces the requirement for PK sampling, including modification or elimination of the Day −7 to Day −4 visit once sufficient data to evaluate the single-dose PK of SRA737 have been collected and analyzed. […]

[2] = tested on: KPC-1 pancreatic cancer; test: In vivo efficacy, KPC-1 model; design: species or system mouse; details: in combination with standard-dose gemcitabine; data not shown
Protocol: (§1) A program of in vivo efficacy studies was performed to assess the activity of SRA737 in combination with genotoxic chemotherapy and targeted agents, and as monotherapy.
(§2) One of these models also carried a MYCN amplification. A fourth HGSOC PDX model with partial resistance to PARPi was also sensitive to high dose SRA737 monotherapy.

[3] = Single dose PK, mouse; format: in vivo
Protocol: The PK of SRA737 have been determined in the mouse, rat, dog and monkey following oral and IV administration (Table 3). […] An acceptable terminal elimination t1/2 was also observed in each species. […] The plasma protein binding of SRA737 at 1 and 10 μM was examined in mouse, minipig, monkey and human plasma using ultracentrifugation and in dog plasma (10 μM) using rapid equilibrium dialysis.

[4] = tested on: rat hepatocytes; test: Stability in cryopreserved hepatocytes, rat; format: in vitro ADME; details: 10 μM, after 4 hours of incubation
Protocol: The formation of SRA737-related metabolites was determined in cryopreserved hepatocytes from human, mouse, rat, dog, minipig and monkey samples after incubation with SRA737 at a nominal concentration of 10 μM for up to 4 hours. […] In the human hepatocyte preparation, approximately 67% of the parent remained after 4 hours of incubation compared to 75% and 7% in the rat and minipig preparations, respectively. Eight human SRA737 metabolites were observed. All SRA737 metabolites formed by human hepatocytes were also formed by monkey hepatocytes. Six metabolites were present at equal or greater abundance in the monkey.

[5] = tested on: MC38; test: In vivo efficacy, MC38 syngeneic mouse model; details: in combination with a PD1/PD-L1 inhibitor; data not shown
Protocol: as §1, §2

[6] = in vivo, Mouse IV 10 mg/kg single dose
[7] = in vivo, Mouse oral 10 mg/kg single dose

## N#Cc1cnc(Nc2cc(NCC3CNCCO3)c(C(F)(F)F)cn2)cn1 (centres unmarked) [SRA737, 5-[[4-[[morpholin-2-yl]methylamino]-5-(trifluoromethyl)-2-pyridyl]amino]pyrazine-2-carbonitrile]
[1]; 150 mg SRA737
  Cmin: 52 ng/mL
[1]; 40 to 600 mg SRA737 combined with gemcitabine 50 to 300 mg/m^2
  dose limiting toxicities (DLTs): No protocol-defined dose limiting toxicities
[1]; 20 mg, Day −7, n = 8-10, read-out: AUC0-12
  AUC(0-t): 145 ng·h/mL
[1]; 40 mg, Day 10, n = 4
  Cmax: 117 ng/mL
  Tmax: 1.8 h
[1]; 40 mg, Day 10, n = 4, read-out: AUC0-12
  AUC(0-t): 543 ng·h/mL
[1]; 40 mg, Day −7, n = 6
  Cmax: 106 ng/mL
  Tmax: 2 h
  half-life: 11.6 h
[1]; 40 mg, Day −7, n = 6, read-out: AUC0-12
  AUC(0-t): 486 ng·h/mL
[1]; 40 mg, Day −7, n = 6, read-out: AUC0-24
  AUC(0-t): 637 ng·h/mL
[1]; 80 mg, Day 10, n = 3
  Cmax: 113 ng/mL
  Tmax: 2 h
[1]; 80 mg, Day 10, n = 3, read-out: AUC0-12
  AUC(0-t): 570 ng·h/mL
[1]; 80 mg, Day −7, n = 3
  Cmax: 146 ng/mL
  Tmax: 2 h
  half-life: 11.3 h
[1]; 80 mg, Day −7, n = 3, read-out: AUC0-12
  AUC(0-t): 641 ng·h/mL
[1]; 80 mg, Day −7, n = 3, read-out: AUC0-24
  AUC(0-t): 825 ng·h/mL
[1]; 150 mg, Day 10, n = 3
  Cmax: 331 ng/mL
  Tmax: 1.5 h
[1]; 150 mg, Day 10, n = 3, read-out: AUC0-12
  AUC(0-t): 1680 ng·h/mL
[1]; 150 mg, Day −7, n = 4
  Cmax: 548 ng/mL
  Tmax: 1.8 h
  half-life: 12.7 h
[1]; 150 mg, Day −7, n = 4, read-out: AUC0-12
  AUC(0-t): 2630 ng·h/mL
[1]; 150 mg, Day −7, n = 4, read-out: AUC0-24
  AUC(0-t): 3550 ng·h/mL
[1]; 300 mg, Day 10, n = 7
  Cmax: 1080 ng/mL
  Tmax: 1.7 h
[1]; 300 mg, Day 10, n = 7, read-out: AUC0-12
  AUC(0-t): 5140 ng·h/mL
[1]; 300 mg, Day −7, n = 7
  Cmax: 995 ng/mL
  Tmax: 2.4 h
  half-life: 11.8 h
[1]; 300 mg, Day −7, n = 7, read-out: AUC0-12
  AUC(0-t): 4530 ng·h/mL
[1]; 300 mg, Day −7, n = 7, read-out: AUC0-24
  AUC(0-t): 5910 ng·h/mL
[1]; 500 mg, Day 10, n = 19-22
  Cmax: 1720 ng/mL
  Tmax: 2.4 h
[1]; 500 mg, Day 10, n = 19-22, read-out: AUC0-12
  AUC(0-t): 10200 ng·h/mL
[1]; 500 mg, Day −7, n = 29
  Cmax: 1430 ng/mL
  Tmax: 2.4 h
  half-life: 11.8 h
[1]; 500 mg, Day −7, n = 29, read-out: AUC0-12
  AUC(0-t): 8320 ng·h/mL
[1]; 500 mg, Day −7, n = 29, read-out: AUC0-24
  AUC(0-t): 11400 ng·h/mL
[1]; 600 mg, Day 10, n = 4
  Cmax: 2110 ng/mL
  Tmax: 2.5 h
[1]; 600 mg, Day 10, n = 4, read-out: AUC0-12
  AUC(0-t): 11900 ng·h/mL
[1]; 600 mg, Day −7, n = 4
  Cmax: 2210 ng/mL
  Tmax: 1.8 h
  half-life: 11.1 h
[1]; 600 mg, Day −7, n = 4, read-out: AUC0-12
  AUC(0-t): 11800 ng·h/mL
[1]; 600 mg, Day −7, n = 4, read-out: AUC0-24
  AUC(0-t): 15100 ng·h/mL
[1]; 20 mg, Day −7, n = 8-10
  half-life: 4.09 h
[2]
  antitumor activity: Significant, dose-dependent antitumor activity
[3]; Mouse oral 10 mg/kg single dose
  Foral: 105%
[3]; [6]
  AUC(0-t): 3770 ng·h/mL
  half-life: 2.9 h
[3]; [7]
  AUC(0-t): 3940 ng·h/mL
  Cmax: 610 ng/mL
  Tmax: 1 h
  half-life: 2.8 h
[4]
  parent remained: 75%
[5]
  antitumor activity: Significant antitumor activity
